The source of these data is ChEMBL document CHEMBL2407028, “Discovery of novel oxazolidinedione derivatives as potent and selective mineralocorticoid receptor antagonists” (Bioorg Med Chem Lett, 2013).

SMILES strings stand for the structures.

The target in this assay is T1, Mineralocorticoid receptor (Homo sapiens, UniProt P08235).
T1 sequence (P08235 whole entry): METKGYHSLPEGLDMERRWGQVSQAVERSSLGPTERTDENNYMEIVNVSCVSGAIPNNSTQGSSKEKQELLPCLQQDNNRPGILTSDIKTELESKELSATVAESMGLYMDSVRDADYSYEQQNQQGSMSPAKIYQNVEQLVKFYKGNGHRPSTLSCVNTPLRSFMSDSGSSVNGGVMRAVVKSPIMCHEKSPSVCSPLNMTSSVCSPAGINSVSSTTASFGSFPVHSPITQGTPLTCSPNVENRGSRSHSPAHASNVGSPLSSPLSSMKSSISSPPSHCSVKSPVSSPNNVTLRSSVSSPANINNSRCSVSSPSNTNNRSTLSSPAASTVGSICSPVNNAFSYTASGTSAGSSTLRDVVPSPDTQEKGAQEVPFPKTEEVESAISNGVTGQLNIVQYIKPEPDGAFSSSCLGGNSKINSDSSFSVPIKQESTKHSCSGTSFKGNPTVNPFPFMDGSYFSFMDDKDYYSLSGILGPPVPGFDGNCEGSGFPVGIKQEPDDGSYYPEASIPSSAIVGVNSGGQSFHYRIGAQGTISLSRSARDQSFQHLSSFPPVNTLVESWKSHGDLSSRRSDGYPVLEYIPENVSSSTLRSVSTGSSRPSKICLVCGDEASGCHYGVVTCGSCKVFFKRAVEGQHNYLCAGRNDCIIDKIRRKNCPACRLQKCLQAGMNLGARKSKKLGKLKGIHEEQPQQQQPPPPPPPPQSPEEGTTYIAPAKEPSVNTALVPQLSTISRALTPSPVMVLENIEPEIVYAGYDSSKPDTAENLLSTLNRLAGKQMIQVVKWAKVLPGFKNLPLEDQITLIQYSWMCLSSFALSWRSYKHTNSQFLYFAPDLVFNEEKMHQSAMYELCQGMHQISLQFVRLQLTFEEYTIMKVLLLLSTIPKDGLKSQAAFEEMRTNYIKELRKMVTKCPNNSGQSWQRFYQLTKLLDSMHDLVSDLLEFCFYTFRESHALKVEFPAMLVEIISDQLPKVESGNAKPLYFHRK
The assay is described as follows: Antagonist activity at human mineralocorticoid receptor assessed as inhibition of binding to coactivator peptide by NH Pro assay.
Turning to `COc1cc(CNC(=O)[C@@]2(Cc3cccc(F)c3)OC(=O)N([C@H](C)c3ccccc3)C2=O)cc(OC)c1`, the IC50 worked out at 280 nM.

With `COc1cc(CNC(=O)[C@@]2(Cc3ccccc3)NC(=O)N(Cc3ccccc3)C2=O)cc(OC)c1`, the IC50 is more than 40000 nM.

In the case of `COc1cccc(CNC(=O)[C@@]2(Cc3ccccc3)OC(=O)N([C@H](C)c3ccccc3)C2=O)c1`, the IC50 is 300 nM.

`C[C@H](c1ccccc1)N1C(=O)O[C@](Cc2ccccc2)(C(=O)NCc2cccc(S(C)(=O)=O)c2)C1=O`: the IC50 came out at 3000 nM.

On to `COc1cc(CNC(=O)C2(Cc3ccccc3)CCN(Cc3ccccc3)C2)cc(OC)c1` (centres undefined), for which the IC50 is more than 40000 nM.

For `C[C@H](c1ccccc1)N1C(=O)O[C@](Cc2ccccc2)(C(=O)NC2CCC2)C1=O`, the IC50 is 1200 nM.

In the case of `COc1cc(CNC(=O)C2(Cc3ccccc3)CN(Cc3ccccc3)C(=O)N2)cc(OC)c1` (centres undefined), the IC50 is more than 40000 nM.

Turning to `C[C@H](c1ccc(F)cc1)N1C(=O)O[C@](Cc2ccccc2)(C(=O)Nc2ccc(Cl)cc2)C1=O`, the IC50 turned out to be 180 nM.

In the case of `C[C@H](c1ccccc1)N1C(=O)O[C@](Cc2ccccc2)(C(=O)NCc2ccncc2)C1=O`, the IC50 was more than 40000 nM.

`C[C@H](c1ccccc1)N1C(=O)O[C@](Cc2ccccc2)(C(=O)Nc2cccc(Cl)c2)C1=O`: the IC50 stood at 2000 nM.

In the case of `CCn1cc(CNC(=O)[C@@]2(Cc3ccccc3)OC(=O)N([C@H](C)c3ccccc3)C2=O)cn1`, the IC50 was more than 10000 nM.

As for `C[C@H](c1ccccc1)N1C(=O)N[C@](Cc2ccccc2)(C(=O)N2CCc3ccccc3C2)C1=O`, the IC50 was 990 nM.

For `C[C@H](c1ccccc1)N1C(=O)O[C@](Cc2ccccc2)(C(=O)NCc2cccnc2)C1=O`, the IC50 worked out at 13000 nM.

For the molecule `C[C@H](c1ccccc1)N1C(=O)O[C@](Cc2ccccc2)(C(=O)NC2CC2)C1=O`, the IC50 worked out at 2000 nM.

On to `C[C@H](c1ccccc1)N1C(=O)O[C@](Cc2ccccc2)(C(=O)NCc2ccc3cnccc3c2)C1=O`, for which the IC50 turned out to be 1500 nM.

With `C[C@H](c1ccccc1)N1C(=O)O[C@](Cc2ccccc2)(C(=O)NCc2cccc(C(F)(F)F)c2)C1=O`, the IC50 came to 500 nM.

As for `C[C@H](c1ccccc1)N1C(=O)O[C@](Cc2ccccc2)(C(=O)Nc2cccc(F)c2)C1=O`, the IC50 was 300 nM.

As to `C[C@H](c1ccccc1)N1C(=O)O[C@](Cc2ccccc2)(C(=O)NCCc2ccncc2)C1=O`, the IC50 stood at 4000 nM.

As to `COc1cc(CNC(=O)[C@@]2(Cc3ccncc3)OC(=O)N(Cc3ccccc3)C2=O)cc(OC)c1`, the IC50 amounted to 30000 nM.

Regarding `C[C@H](c1ccccc1)N1C(=O)O[C@](Cc2ccccc2)(C(=O)NCc2cccc(Cl)c2)C1=O`, the IC50 is 280 nM.

`C[C@H](c1ccccc1)N1C(=O)O[C@](Cc2ccccc2)(C(=O)N[C@H]2C[C@@H](c3ccccc3)C2)C1=O`: the IC50 is 650 nM.

As for `C[C@H](c1ccccc1)N1C(=O)O[C@](Cc2ccccc2)(C(=O)Nc2ccc(C#N)cc2)C1=O`, the IC50 came out at 100 nM.

Consider `C[C@H](c1ccccc1)N1C(=O)O[C@](Cc2ccccc2)(C(=O)NCc2ccc(C(F)(F)F)cc2)C1=O`, for which the IC50 was 570 nM.

As to `Cc1cc(CNC(=O)[C@@]2(Cc3ccccc3)OC(=O)N([C@H](C)c3ccccc3)C2=O)on1`, the IC50 came to 3000 nM.

`COc1cc(CNC(=O)[C@@]2(Cc3ccccc3)OC(=O)N([C@@H](C)c3ccccc3)C2=O)cc(OC)c1`: the IC50 came to 500 nM.

Take `C[C@H](c1ccccc1)N1C(=O)O[C@](Cc2ccccc2)(C(=O)NCc2ccc3ccccc3n2)C1=O`: the IC50 came out at 2500 nM.

On to `O=C1O[C@](Cc2ccccc2)(C(=O)NCc2nccs2)C(=O)N1Cc1ccccc1`, for which the IC50 is more than 40000 nM.

In the case of `C[C@H](c1ccccc1)N1C(=O)O[C@](Cc2ccccc2)(C(=O)Nc2ccccc2Cl)C1=O`, the IC50 amounted to 1000 nM.

Take `COc1ccccc1CNC(=O)[C@@]1(Cc2ccccc2)OC(=O)N([C@H](C)c2ccccc2)C1=O`: the IC50 was 500 nM.

`COc1cc(CNC(=O)[C@@]2(Cc3ccc(F)cc3)OC(=O)N([C@H](C)c3ccccc3)C2=O)cc(OC)c1`: the IC50 turned out to be 200 nM.

For `COc1ccc(CNC(=O)[C@@]2(Cc3ccccc3)OC(=O)N([C@H](C)c3ccccc3)C2=O)cc1`, the IC50 was determined as 1000 nM.

Consider `COc1cc(CNC(=O)[C@@]2(Cc3ccc4nonc4c3)OC(=O)N([C@H](C)c3ccccc3)C2=O)cc(OC)c1`, for which the IC50 is more than 40000 nM.

`C[C@H](c1ccccc1)N1C(=O)O[C@](Cc2ccccc2)(C(=O)NC2CCCCC2)C1=O`: the IC50 was found to be 4000 nM.

Consider `C[C@H](c1ccccc1)N1C(=O)O[C@](Cc2ccccc2)(C(=O)NCc2ccc(S(C)(=O)=O)cc2)C1=O`, for which the IC50 was more than 10000 nM.

On to `COc1cc(CNC(=O)[C@@]2(Cc3ccccc3)OC(=O)N(Cc3ccccc3)C2=O)cc(OC)c1`, for which the IC50 stood at 3000 nM.

For `COc1cc(CNC(=O)C2(Cc3ccccc3)CC(=O)N([C@H](C)c3ccccc3)C2=O)cc(OC)c1` (some centres undefined), the IC50 was more than 40000 nM.

Take `COc1cc(CNC(=O)[C@@]2(Cc3ccccc3)OC(=O)N(C(C)C)C2=O)cc(OC)c1`: the IC50 came out at 500 nM.

On to `COc1cc(CNC(=O)[C@@]2(Cc3cccc4nonc34)OC(=O)N([C@H](C)c3ccccc3)C2=O)cc(OC)c1`, for which the 50% inhibitory concentration (IC50) was more than 40000 nM.

`C[C@H](c1ccccc1)N1C(=O)O[C@](Cc2ccccc2)(C(=O)N[C@H](C)c2cccc(Cl)c2)C1=O`: the IC50 turned out to be 400 nM.

As to `COc1cc(CNC(=O)[C@@]2(Cc3cccc(Cl)c3)OC(=O)N([C@H](C)c3ccccc3)C2=O)cc(OC)c1`, the IC50 worked out at 750 nM.

With `CC[C@H](c1ccccc1)N1C(=O)O[C@](Cc2ccccc2)(C(=O)NCc2cc(OC)cc(OC)c2)C1=O`, the IC50 is 400 nM.

`COc1cccc(CNC(=O)[C@@]2(Cc3ccccc3)OC(=O)N(Cc3ccccc3)C2=O)c1`: the IC50 stood at 1000 nM.

Take `C[C@H](c1ccccc1)N1C(=O)O[C@](Cc2ccccc2)(C(=O)NCc2cccc3ccnn23)C1=O`: the IC50 was found to be 300 nM.

`COc1cc(CNC(=O)C2(Cc3ccccc3)CCN([C@H](C)c3ccccc3)C2=O)cc(OC)c1` (some centres undefined): the IC50 was more than 10000 nM.

For the molecule `C[C@H](c1ccccc1)N1C(=O)O[C@](Cc2ccccc2)(C(=O)Nc2ccc3ccccc3c2)C1=O`, the IC50 worked out at 600 nM.

For `COc1cc(CNC(=O)[C@@]2(Cc3ccccc3)OC(=O)N(C3CCCc4ccccc43)C2=O)cc(OC)c1` (some centres undefined), the IC50 stood at 170 nM.

On to `COc1cc(CNC(=O)[C@@]2(Cc3ccccn3)OC(=O)N([C@H](C)c3ccccc3)C2=O)cc(OC)c1`, for which the IC50 came out at 3000 nM.

On to `COc1cc(CNC(=O)[C@@]2(Cc3ccccc3F)OC(=O)N([C@H](C)c3ccccc3)C2=O)cc(OC)c1`, for which the IC50 came out at 300 nM.

For `COc1cc(CNC(=O)[C@]2(Cc3ccccc3)C(=O)N(Cc3ccccc3)C(=O)N2C)cc(OC)c1`, the IC50 was more than 40000 nM.

In the case of `COc1cc(CNC(=O)[C@@]2(Cc3ccccc3)OC(=O)N([C@H](C)c3ccc(F)cc3)C2=O)cc(OC)c1`, the IC50 amounted to 37 nM.

Turning to `C[C@H](c1ccccc1)N1C(=O)O[C@](Cc2ccccc2)(C(=O)NCc2ccccn2)C1=O`, the IC50 is 16000 nM.

On to `C[C@H](c1ccccc1)N1C(=O)O[C@](Cc2ccccc2)(C(=O)NCc2ccc(Cl)cc2)C1=O`, for which the IC50 was determined as 200 nM.

`C[C@H](c1ccccc1)N1C(=O)O[C@](Cc2ccccc2)(C(=O)NCCc2cn[nH]c2)C1=O`: the IC50 was more than 40000 nM.

For `C[C@H](c1ccccc1)N1C(=O)O[C@](Cc2ccccc2)(C(=O)NCCc2ccccn2)C1=O`, the IC50 amounted to 15000 nM.

In general, IC50 refers to the concentration that inhibits the measured activity by half.
